Measurements as given in patent publication US8124647B2 (priority 2002, dated 2012).
pEC50: −log10 of the molar value.

How the values were obtained:
human androgen receptor [1] = molecular target: T1, human androgen receptor (Homo sapiens, UniProt P10275); experiment: cell-based; settings: in the presence of 1 nM DHT
T1 construct: expressed in transfected cells; host or cells: CHO cells, cell line CHO-AR-pMMTV-LUC 1G12-A5-CA
T1 sequence (P10275 1-920): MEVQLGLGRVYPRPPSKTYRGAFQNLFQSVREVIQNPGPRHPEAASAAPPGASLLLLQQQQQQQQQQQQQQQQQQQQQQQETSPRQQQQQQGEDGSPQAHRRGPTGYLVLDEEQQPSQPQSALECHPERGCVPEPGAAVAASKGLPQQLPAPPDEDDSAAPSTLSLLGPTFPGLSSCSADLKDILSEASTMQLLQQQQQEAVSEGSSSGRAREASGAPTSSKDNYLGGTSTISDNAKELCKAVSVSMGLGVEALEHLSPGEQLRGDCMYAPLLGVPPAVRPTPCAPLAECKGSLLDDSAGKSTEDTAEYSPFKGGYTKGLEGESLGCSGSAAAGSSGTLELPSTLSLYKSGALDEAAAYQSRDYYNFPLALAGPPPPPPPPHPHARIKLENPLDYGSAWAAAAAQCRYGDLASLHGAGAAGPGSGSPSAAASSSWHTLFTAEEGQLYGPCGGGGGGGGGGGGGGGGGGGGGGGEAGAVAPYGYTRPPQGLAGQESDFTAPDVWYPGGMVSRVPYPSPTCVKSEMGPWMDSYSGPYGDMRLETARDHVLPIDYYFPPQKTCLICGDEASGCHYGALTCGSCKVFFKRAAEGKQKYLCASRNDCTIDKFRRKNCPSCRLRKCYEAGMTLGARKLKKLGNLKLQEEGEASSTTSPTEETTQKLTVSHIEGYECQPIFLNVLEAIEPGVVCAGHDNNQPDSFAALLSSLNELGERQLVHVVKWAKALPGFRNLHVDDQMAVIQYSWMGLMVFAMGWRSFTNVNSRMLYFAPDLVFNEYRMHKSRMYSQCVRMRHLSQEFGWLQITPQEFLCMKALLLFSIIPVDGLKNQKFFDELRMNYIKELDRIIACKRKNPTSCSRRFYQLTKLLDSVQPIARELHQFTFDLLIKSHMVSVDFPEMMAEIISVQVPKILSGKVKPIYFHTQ
Procedure: (§1) Compounds were tested for their Androgen Receptor activity in a transactivation assay and in a binding assay.
(§2) The (anti-)androgenic activity of test compounds (EC50 and intrinsic activity) was determined in an in vitro bioassay of Chinese hamster ovary (CHO) cells stably transfected with the human androgen receptor expression plasmid and a reporter plasmid in which the MMTV-promoter is linked to the luciferase reporter gene. The cell-line CHO-AR-pMMTV-LUC 1G12-A5-CA is described in Schoonen et al. (2000), Journal of Steroid Biochemistry and Molecular Biology 74(4):213-222. The antiandrogenic activity of a test compound was determined by the inhibition of the transactivation via the androgen receptor of the enzyme luciferase in the presence of 1 nM DHT (5α-dihydrotestosterone, 17β-hydroxy-5α-androstan-3-one). Intrinsic activity of antiandrogenic activity was determined in the presence of the reference antiandrogen 2-Hydroxy-2-methyl-N-(4-nitro-3-trifluoromethyl-phenyl)-propionamide(Hydroxyflutamide), and set at 100%. For androgenic activity, maximal intrinsic activity in the presence of 100 nM DHT was set at 100%.

human androgen receptor [2] = molecular target: T1, human androgen receptor; experiment: androgenic activity (EC50 and intrinsic activity), transactivation bioassay in CHO-AR-pMMTV-LUC cells (Table 4); type: cell-based
Procedure: as §1, §2

[3] = antiandrogenic activity, read-out: ant EC50
[4] = androgenic activity, read-out: ago EC50
[5] = ant EC50, antiandrogenic activity

SMILES | pEC50 (human androgen receptor [1]; [3]) | pEC50 (human androgen receptor [2]; [4]) | pEC50 (human androgen receptor [1]; [5]) | pEC50 (human androgen receptor [2]; ago EC50, androgenic activity)
CC(C)CNC(=O)c1ccc2c(Sc3ccccc3[N+](=O)[O-])cn(Cc3cc(F)cc(F)c3)c2c1 [Compound 42] | < 5.00 | 7.00 to 8.30 | – | –
COc1ccc2c(Sc3ccccc3[N+](=O)[O-])cn(Cc3cc(F)ccc3C(F)(F)F)c2c1 [Compound 70] | < 5.00 | 7.00 to 8.30 | – | –
O=[N+]([O-])c1ccccc1Sc1cn(Cc2cc(F)cc(F)c2)c2ccc(F)cc12 [Compound 53] | < 5.00 | 7.00 to 8.30 | – | –
CN(C)C(=O)c1ccc2c(Sc3ccccc3[N+](=O)[O-])cn(Cc3cc(F)cc(F)c3)c2c1 [Compound 49] | < 5.00 | > 8.30 | – | –
COc1ccc2c(Sc3ccccc3[N+](=O)[O-])cn(CC3CCCCO3)c2c1 (centres unmarked) [Compound 11] | < 5.00 | 7.00 to 8.30 | – | –
CN(C)CCNC(=O)c1ccc2c(Sc3ccccc3[N+](=O)[O-])cn(Cc3cc(F)cc(F)c3)c2c1 [Compound 36] | < 5.00 | 7.00 to 8.30 | – | –
COc1ccc2c(Sc3ccccc3[N+](=O)[O-])cn(Cc3ccccc3F)c2c1 [Compound 5] | < 5.00 | > 6.00 | – | –
COc1ccc2c(Sc3ccccc3[N+](=O)[O-])cn(Cc3ccc(Cl)c(Cl)c3)c2c1 [Compound 14] | < 5.00 | > 6.00 | – | –
COc1ccc2c(Sc3ccccc3[N+](=O)[O-])cn(Cc3ccccn3)c2c1 [Compound 9, 6-Methoxy-3-(2-nitro-phenylsulfanyl)-1-pyridin-2-ylmethyl-1H-indole] | > 8.30 | > 8.30 | – | –
COc1ccc2c(Sc3ccccc3[N+](=O)[O-])cn(Cc3cc(C)on3)c2c1 [Compound 13] | < 5.00 | > 6.00 | – | –
COc1ccc2c(S(=O)(=O)c3ccccc3[N+](=O)[O-])cn(Cc3cc(F)cc(F)c3)c2c1 [Compound 62, 1-(3,5-Difluoro-benzyl)-6-methoxy-3-(2-nitro-benzenesulfonyl)-1H-indole] | < 5.00 | > 8.30 | – | –
COc1ccc2c(Sc3ccccc3[N+](=O)[O-])cn(Cc3cccc(F)c3)c2c1 [Compound 71] | < 5.00 | > 8.30 | – | –
O=C(Nc1ccc2c(Sc3ccccc3[N+](=O)[O-])cn(Cc3cc(F)cc(F)c3)c2c1)C(F)(F)F [Compound 59, N-[1-(3,5-Difluoro-benzyl)-3-(2-nitro-phenylsulfanyl)-1H-indol-6-yl]-2,2,2-trifluoro-acetamide] | < 5.00 | > 8.30 | – | –
O=[N+]([O-])c1ccccc1Sc1cn(Cc2cc(F)cc(F)c2)c2cc(Br)ccc12 [Compound 22] | < 5.00 | 7.00 to 8.30 | – | –
CCCNC(=O)c1ccc2c(Sc3ccccc3[N+](=O)[O-])cn(Cc3cc(F)cc(F)c3)c2c1 [Compound 48] | > 6.00 | 7.00 to 8.30 | – | –
COc1ccc(Cn2cc(Sc3ccccc3[N+](=O)[O-])c3ccc(OC)cc32)cc1 [Compound 84] | 5.00 to 6.00 | > 6.00 | – | –
O=[N+]([O-])c1ccccc1Sc1cn(Cc2cc(F)cc(F)c2)c2cc(CO)ccc12 [Compound 24] | < 5.00 | 7.00 to 8.30 | – | –
COc1ccc2c(Sc3ccccc3[N+](=O)[O-])cn(Cc3ccccc3C#N)c2c1 [Compound 4] | 7.00 to 8.30 | > 6.00 | – | –
O=C(NCc1ccccc1)c1ccc2c(Sc3ccccc3[N+](=O)[O-])cn(Cc3cc(F)cc(F)c3)c2c1 [Compound 43] | > 6.00 | 7.00 to 8.30 | – | –

SMILES | pEC50 (human androgen receptor [1]; [3]) | pEC50 (human androgen receptor [2]; [4]) | pEC50 (human androgen receptor [1]; [5]) | pEC50 (human androgen receptor [2]; ago EC50, androgenic activity)
O=C(NCCO)c1ccc2c(Sc3ccccc3[N+](=O)[O-])cn(Cc3cc(F)cc(F)c3)c2c1 [Compound 37] | < 5.00 | > 8.30 | – | –
CNC(=O)c1ccc2c(Sc3ccccc3[N+](=O)[O-])cn(Cc3cc(F)cc(F)c3)c2c1 [Compound 47, 1-(3,5-Difluoro-benzyl)-3-(2-nitro-phenylsulfanyl)-1H-indole-6-carboxylic acid methylamide] | < 5.00 | > 8.30 | – | –
Nc1ccc2c(Sc3ccccc3[N+](=O)[O-])cn(Cc3cc(F)cc(F)c3)c2c1 [Compound 57, 1-(3,5-Difluoro-benzyl)-3-(2-nitro-phenylsulfanyl)-1H-indol-6-ylamine] | < 5.00 | > 6.00 | – | –
CN(C)C(=O)CNC(=O)c1ccc2c(Sc3ccccc3[N+](=O)[O-])cn(Cc3cc(F)cc(F)c3)c2c1 [Compound 40] | < 5.00 | 7.00 to 8.30 | – | –
COc1ccc2c(Sc3ccccc3CO)cn(Cc3cc(F)cc(F)c3)c2c1 [Compound 16, {2-[1-(3,5-Difluoro-benzyl)-6-methoxy-1H-indol-3-ylsulfanyl]-phenyl}-methanol] | 7.00 to 8.30 | 7.00 to 8.30 | – | –
N#Cc1ccc2c(Sc3ccccc3[N+](=O)[O-])cn(Cc3cc(F)cc(F)c3)c2c1 [Compound 26, 1-(3,5-Difluoro-benzyl)-3-(2-nitro-phenylsulfanyl)-1H-indole-6-carbonitrile] | < 5.00 | > 8.30 | – | –
COc1ccc2c(Sc3ccccc3[N+](=O)[O-])cn(Cc3ccccc3[N+](=O)[O-])c2c1 [Compound 8] | – | – | < 5.00 | 7.00 to 8.30
COc1ccc2c(Sc3ccccc3[N+](=O)[O-])cn(Cc3ccc(F)cc3)c2c1 [Compound 83] | < 5.00 | 7.00 to 8.30 | – | –
COc1cccc(Cn2cc(Sc3ccccc3[N+](=O)[O-])c3ccc(OC)cc32)c1 [Compound 72] | < 5.00 | 7.00 to 8.30 | – | –
COc1ccc2c(Sc3ccccc3[N+](=O)[O-])cn(Cc3cccc([N+](=O)[O-])c3)c2c1 [Compound 74] | – | – | < 5.00 | > 8.30
Cc1cccc2c1c(Sc1ccccc1[N+](=O)[O-])cn2Cc1cc(F)cc(F)c1 [Compound 55] | < 5.00 | 7.00 to 8.30 | – | –
COc1ccc2c(Sc3ccccc3[N+](=O)[O-])cn(Cc3cccc(OC(F)(F)F)c3)c2c1 [Compound 77] | < 5.00 | 7.00 to 8.30 | – | –
COc1ccc2c(Sc3ccccc3[N+](=O)[O-])cn(Cc3ccc(Cl)s3)c2c1 [Compound 88] | < 5.00 | 7.00 to 8.30 | – | –
COc1ccc2c(c1)c(Sc1ccccc1[N+](=O)[O-])cn2Cc1ccccc1 [Compound 91] | 5.00 to 6.00 | < 5.00 | – | –
COC(=O)CNC(=O)c1ccc2c(Sc3ccccc3[N+](=O)[O-])cn(Cc3cc(F)cc(F)c3)c2c1 [Compound 39] | < 5.00 | 7.00 to 8.30 | – | –
COc1ccc2c(Sc3ccccc3[N+](=O)[O-])cn(Cc3csc(C)n3)c2c1 [Compound 79] | < 5.00 | 7.00 to 8.30 | – | –
COc1ccc2c(Sc3ccccc3[N+](=O)[O-])cn(Cc3cccc(C(F)(F)F)c3)c2c1 [Compound 78] | < 5.00 | 7.00 to 8.30 | – | –
COc1ccc2c([S+]([O-])c3ccccc3[N+](=O)[O-])cn(Cc3cc(F)cc(F)c3)c2c1 (centres unmarked) [Compound 64, 1-(3,5-Difluoro-benzyl)-6-methoxy-3-(2-nitro-benzenesulfinyl)-1H-indole] | > 6.00 | < 5.00 | – | –
